The values below come from ChEMBL document CHEMBL3600379, “Radiosynthesis and preliminary PET evaluation of glycogen synthase kinase 3β (GSK-3β) inhibitors containing [(11)C]methylsulfanyl, [(11)C]methylsulfinyl or [(11)C]methylsulfonyl groups” (Bioorg Med Chem Lett, 2015).

Molecules are shown by their SMILES.

Common to all, as to format: ADME, organism-based
The test system of data set [1] is Brain. The experiment in a line: Drug uptake in brain of normal mouse at 15 to 20 MBq, iv measured at 30 mins by PET image analysis. The settings on record: in vivo, 0.5 h.
For data set [2], the system named is Brain. The experiment in a line: Drug uptake in brain of cold water-induced mouse stress model at 15 to 20 MBq, iv measured at 15 mins by PET image analysis. The note with it: in vivo, 0.25 h.
The subject of data set [3] is Brain. Nature of the data set: Drug uptake in brain of cold water-induced mouse stress model at 15 to 20 MBq, iv measured over 60 mins by PET image analysis relative to normal mouse. The note with it: in vivo, 1 h.
The subject of data set [4] is Brain. The experiment in a line: Drug uptake in brain of normal mouse at 15 to 20 MBq, iv measured at 15 mins by PET image analysis. The note with it: in vivo, 0.25 h.
For data set [5], the system named is Brain. Nature of the data set: Drug uptake in brain of cold water-induced mouse stress model at 15 to 20 MBq, iv measured at 30 mins by PET image analysis. The note with it: in vivo, 0.5 h.
The subject of data set [6] is Brain. The experiment in a line: Drug uptake in brain of normal mouse at 15 to 20 MBq, iv measured at 2 mins by PET image analysis. The settings on record: in vivo.
The test system of data set [7] is Brain. Nature of the data set: Drug uptake in brain of cold water-induced mouse stress model at 15 to 20 MBq, iv measured at 2 mins by PET image analysis. The note with it: in vivo.

`Cc1nnc(-c2ccc3occ(-c4ccc(S[11CH3])cc4)c3c2)o1`: the Drug uptake result in the data set on Brain [1] and in the data set on Brain [5] was “Not Active” each time. Moreover, the SUV in the data set with Brain [2] is 0.7; in the data set with Brain [4], 0.3; in the data set on Brain [6], 1; in the data set on Brain [7], 1.5. The “fold change (FC)” value with Brain [3] is recorded as 2.

In the case of `Cc1nnc(-c2ccc3occ(-c4ccc([S+]([11CH3])[O-])cc4)c3c2)o1` (stereo not given), the Drug uptake entry in the data set on Brain [1] and in the data set on Brain [5] was “Not Active” in each case. Moreover, the SUV stood at 0.3 in the data set on Brain [2], 0.3 in the data set on Brain [4], 0.5 with Brain [6] and 0.8 with Brain [7].

For `Cc1nnc(-c2ccc3occ(-c4ccc(S([11CH3])(=O)=O)cc4)c3c2)o1`, the Drug uptake entry in the data set with Brain [1] and in the data set on Brain [5] was “Not Active” throughout. The SUV with Brain [2] is reported as 0.4; in the data set with Brain [4] it was 0.2; with Brain [6], 0.7; with Brain [7] it was 1.6. The “fold change (FC)” value with Brain [3] stood at 2.
